Results reported in the supplement of paper PMC10331698.
± gives the standard deviation of the averaged measurements.

Assays:
Experiment in all cases: level (log10 ratio to DMSO vehicle control); higher = higher biomarker level / cell amount than vehicle control
Conditions in all cases: in DMSO
1-(Perfluorohexyl)octane = compound: CCCCCCCCC(F)(F)C(F)(F)C(F)(F)C(F)(F)C(F)(F)C(F)(F)F [1-(Perfluorohexyl)octane]
Method: (§1)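 BioMAP Diversity Plus panel of 12 human primary cell co-culture systems (3C, 4H, LPS, SAg, BT, BF4T, BE3C, CASM3C, HDF3CGF, KF3CT, MyoF, Mphg). Compounds were added 1 h before stimulation and left for 24 h (MyoF 48 h; BT 72 h for soluble read-outs or 6 d for IgG). Biomarkers were read by ELISA, cytotoxicity by SRB, PBMC viability and proliferation by Alamar Blue. Each well value was divided by the mean of 8 DMSO control wells on the same plate and log10 transformed; duplicate blinded samples were tested at 4 concentrations.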

Perfluorooctanamidine = compound: N=C(N)C(F)(F)C(F)(F)C(F)(F)C(F)(F)C(F)(F)C(F)(F)C(F)(F)F [Perfluorooctanamidine]
Method: as §1

[1] = compound: O=C(O)C(F)(F)C(F)(F)C(F)(F)C(F)(F)C(F)(F)C(F)(F)C(F)(F)C(F)(F)C(F)(F)C(F)(F)C(F)(F)C(F)(F)F [Perfluorotridecanoic acid]
Method: as §1

[2] = compound: O=C(O)CCC(F)(F)C(F)(F)C(F)(F)F [3:3 Fluorotelomer carboxylic acid]
Method: as §1

[3] = compound: O=S(=O)(O)C(F)(F)C(F)(F)C(F)(F)C(F)(F)C(F)(F)C(F)(F)C(F)(F)C(F)(F)F [Potassium perfluorooctanesulfonate]
Method: as §1

[4] = compound: OCC(F)(F)C(F)(F)C(F)(F)C(F)(F)C(F)(F)C(F)F [1H,1H,7H-Dodecafluoro-1-heptanol]
Method: as §1

Test System | level (log10) (1-(Perfluorohexyl)octane; 6700 nM) | level (log10) (1-(Perfluorohexyl)octane; 20000 nM) | level (log10) (Perfluorooctanamidine; 6700 nM) | level (log10) (Perfluorooctanamidine; 20000 nM) | level (log10) (Perfluorooctanamidine; 60000 nM) | level (log10) ([1]; 1500 nM) | level (log10) ([1]; 4400 nM) | level (log10) ([1]; 13000 nM) | level (log10) ([1]; 40000 nM) | level (log10) ([2]; 6700 nM) | level (log10) ([2]; 20000 nM) | level (log10) ([2]; 60000 nM) | level (log10) ([3]; 6700 nM) | level (log10) ([3]; 20000 nM) | level (log10) ([3]; 60000 nM) | level (log10) ([4]; 6700 nM) | level (log10) ([4]; 20000 nM) | level (log10) ([4]; 60000 nM)
4H:CD106/VCAM-1 | 0.011 ± 0.04 | -0.005 | 0.0015 ± 0.011 | -0.028 ± 0.016 | -0.132 | -0.028 ± 0.0071 | -0.065 ± 0.04 | -0.107 ± 0.0064 | -0.089 ± 0.018 | -0.009 ± 0.0028 | -0.014 ± 0.014 | -0.0165 ± 0.013 | 0.0085 ± 0.028 | -0.004 ± 0.016 | -0.0095 ± 0.023 | 0.009 ± 0.034 | -0.016 ± 0.0085 | -0.0125 ± 0.0092
BF4T:PAI-I | 0.0075 ± 0.026 | 0.0005 ± 0.028 | 0.007 ± 0.013 | -0.001 ± 0.03 | 0.03 | 0.0025 ± 0.028 | 0.005 ± 0.017 | 0.007 ± 0.02 | 0.0235 ± 0.0021 | 0.0025 ± 0.021 | -0.011 ± 0.018 | 0.006 ± 0.0014 | 0.0015 ± 0.0092 | -0.0045 ± 0.0078 | 0.007 ± 0.04 | 0.0055 ± 0.005 | -0.0035 ± 0.013 | 0.0105 ± 0.013
3C:Proliferation | -0.0125 ± 0.06 | -0.0035 ± 0.012 | -0.0395 ± 0.018 | -0.054 ± 0.028 | -0.194 | -0.056 ± 0.048 | -0.025 ± 0.0085 | -0.348 ± 0.38 | -0.811 ± 0.1 | -0.0215 ± 0.054 | -0.0175 ± 0.091 | 0.0195 ± 0.049 | -0.042 ± 0.035 | -0.0165 ± 0.061 | -0.0445 ± 0.0092 | -0.0365 ± 0.091 | -0.0885 ± 0.07 | -0.034 ± 0.045
SAg:SRB | 0.0035 ± 0.0078 | -0.004 ± 0.018 | -0.0025 ± 0.0078 | 0.0025 ± 0.018 | -0.084 | -0.0015 ± 0.011 | -0.0095 ± 0.0035 | -0.0045 ± 0.012 | -0.0335 ± 0.026 | -0.0065 ± 0.011 | -0.0065 ± 0.0078 | -0.005 ± 0.016 | -0.0055 ± 0.028 | -0.0255 ± 0.035 | -0.0335 ± 0.0035 | -0.014 ± 0.017 | -0.0105 ± 0.028 | -0.013 ± 0.011
BE3C:EGFR | -0.001 ± 0.0042 | -0.013 ± 0.0028 | -0.009 ± 0.0014 | -0.013 ± 0.014 | -0.022 | 0.0145 ± 0.04 | -0.008 ± 0.031 | 0.0005 ± 0.022 | 0.006 ± 0.0014 | 0.006 ± 0.0057 | 0.0105 ± 0.013 | -0.0015 ± 0.005 | -0.012 ± 0.021 | -0.173 ± 0.043 | -0.182 ± 0.071 | 0.0125 ± 0.0092 | -0.0005 ± 0.0092 | 0.0095 ± 0.0021
LPS:M-CSF | -0.0065 ± 0.021 | 0.0235 ± 0.037 | -0.0045 ± 0.0078 | -0.011 ± 0.03 | -0.068 | -0.006 ± 0.042 | -0.017 ± 0.047 | -0.0135 ± 0.019 | -0.568 ± 0.03 | -0.0335 ± 0.052 | -0.0095 ± 0.016 | 0.0215 ± 0.033 | -0.0215 ± 0.016 | 0 ± 0.024 | 0.008 ± 0.014 | 0.0025 ± 0.00071 | 0.0075 ± 0.0035 | 0.01 ± 0.038
BT:sTNF-alpha | 0.0415 ± 0.028 | 0.126 ± 0.16 | 0.102 ± 0.099 | 0.0345 ± 0.084 | 0.01 | 0.0475 ± 0.064 | 0.0075 ± 0.033 | -0.054 ± 0.096 | -0.05 ± 0.067 | 0.152 ± 0.077 | 0.0025 ± 0.098 | 0.158 ± 0.018 | 0.003 ± 0.076 | 0.0225 ± 0.069 | -0.039 ± 0.016 | -0.01 ± 0.31 | 0.0815 ± 0.039 | -0.0155 ± 0.15
LPS:CD69 | -0.012 ± 0.061 | 0.007 ± 0.038 | -0.025 ± 0.045 | -0.0395 ± 0.04 | -0.132 | 0.002 ± 0.034 | -0.0545 ± 0.053 | -0.0455 ± 0.044 | -0.069 ± 0.025 | -0.0345 ± 0.09 | -0.016 ± 0.052 | -0.0435 ± 0.061 | -0.0315 ± 0.012 | -0.046 ± 0.0057 | -0.0205 ± 0.039 | -0.002 ± 0.096 | -0.0005 ± 0.076 | 0.0005 ± 0.079
4H:VEGFR2 | 0.0045 ± 0.022 | 0.0245 ± 0.0021 | -0.0135 ± 0.023 | -0.023 ± 0.025 | 0.064 | 0.0375 ± 0.0078 | -0.0205 ± 0.037 | -0.0125 ± 0.1 | -0.257 ± 0.1 | -0.0045 ± 0.0078 | -0.0135 ± 0.011 | 0.0075 ± 0.063 | 0.0245 ± 0.0021 | 0.01 ± 0.024 | 0.027 ± 0.0099 | -0.011 ± 0.044 | 0.0075 ± 0.061 | 0.014 ± 0.03
4H:SRB | 0.0035 ± 0.019 | -0.002 ± 0.0042 | 0.0035 ± 0.0021 | -0.006 ± 0.0071 | -0.029 | -0.0115 ± 0.0064 | -0.022 ± 0.0014 | -0.054 ± 0.042 | -0.443 ± 0.037 | -0.0125 ± 0.022 | -0.003 ± 0.013 | -0.0185 ± 0.012 | -0.0105 ± 0.011 | 0.004 ± 0.024 | -0.0095 ± 0.023 | -0.0055 ± 0.028 | -0.0215 ± 0.012 | -0.0075 ± 0.029
BF4T:CD54/ICAM-1 | 0.0005 ± 0.005 | -0.0085 ± 0.023 | -0.001 ± 0.0085 | -0.006 ± 0.017 | 0.039 | 0.01 ± 0.023 | 0.0115 ± 0.015 | -0.01 ± 0.0028 | 0.0115 ± 0.025 | -0.0075 ± 0.0092 | 0.007 | -0.008 ± 0.0071 | 0.0055 ± 0.032 | 0.0025 ± 0.012 | 0.0215 ± 0.035 | 0.0045 ± 0.0064 | 0.004 ± 0.014 | 0.006 ± 0.013
LPS:IL-1alpha | -0.0215 ± 0.016 | 0.001 ± 0.0057 | 0.011 ± 0.024 | -0.0095 ± 0.049 | -0.003 | 0.0655 ± 0.088 | -0.0155 ± 0.06 | 0.0405 ± 0.042 | 0.0445 ± 0.018 | -0.005 ± 0.0071 | -0.0245 ± 0.0078 | -0.0095 ± 0.029 | -0.022 ± 0.0014 | -0.0195 ± 0.011 | -0.0145 ± 0.012 | -0.006 ± 0.0042 | -0.031 ± 0.02 | 0.0025 ± 0.046
BT:sIL-17F | 0.083 ± 0.033 | 0.089 ± 0.0071 | -0.0225 ± 0.071 | -0.209 ± 0.023 | -0.112 | -0.0115 ± 0.1 | -0.02 ± 0.048 | 0.0775 ± 0.067 | 0.004 ± 0.09 | -0.003 ± 0.081 | 0.035 ± 0.081 | 0.059 ± 0.048 | -0.085 ± 0.037 | -0.06 ± 0.11 | -0.072 ± 0.037 | -0.104 ± 0.2 | -0.0695 ± 0.07 | -0.061 ± 0.064
3C:HLA-DR | 0.028 ± 0.03 | 0.0205 ± 0.019 | 0.0025 ± 0.016 | -0.0295 ± 0.0064 | -0.035 | -0.011 ± 0.0028 | -0.0135 ± 0.011 | -0.021 ± 0.02 | -0.0095 ± 0.011 | -0.0055 ± 0.029 | -0.0155 ± 0.013 | -0.0105 ± 0.0092 | 0.0075 ± 0.0092 | 0.0075 ± 0.0021 | 0.0215 ± 0.0064 | 0.008 ± 0.018 | -0.0055 ± 0.016 | -0.0105 ± 0.013
4H:CD87/uPAR | 0.027 ± 0.027 | 0.0155 ± 0.015 | 0.0455 ± 0.097 | 0.055 ± 0.028 | 0.146 | 0.0035 ± 0.028 | -0.03 ± 0.017 | -0.0175 ± 0.015 | -0.0515 ± 0.074 | 0.001 ± 0.027 | -0.014 ± 0.0071 | -0.045 ± 0.011 | 0.0655 ± 0.044 | 0.037 ± 0.033 | 0.082 ± 0.058 | 0.016 ± 0.014 | 0.001 ± 0.014 | -0.019 ± 0.031
BF4T:MMP-1 | -0.0155 ± 0.035 | 0.0075 ± 0.052 | 0.015 ± 0.02 | 0.006 ± 0.024 | 0.092 | 0 ± 0.025 | -0.005 ± 0.0057 | -0.0015 ± 0.013 | 0.0045 ± 0.00071 | 0.0005 ± 0.0064 | -0.0065 ± 0.011 | -0.005 ± 0.027 | 0.028 ± 0.017 | 0.046 ± 0.0028 | 0.062 ± 0.011 | 0.0095 ± 0.04 | 0.0145 ± 0.037 | 0.0245 ± 0.0092
